In patent publication US7582616B2, “Nucleoside transport inhibitors” (Quesrema Enterprises LLC, priority 2003, dated 2009):
Marks after values point to notes of the source that are not given here. Values belong to the compound of their own block, whether it stands above or below them.

What was measured:
rat heart = experiment: Rat heart isolated model, recovery from global ischemia; assay type: in vivo; conditions: for Percentage recovery relative to control levels: global ischemia; for Change in EDP / Recovery from 30 min Global Ischemia (LVDP): treatment during ischemia and reperfusion, mean SEM; for Change in EDP: end diastolic pressure; for Recovery from 30 min Global Ischemia (LVDP): left ventricular developed pressure
Text: In addition, treatment with compound 4 also appears to keep the heart more relaxed than treatment with either control or NBMPR, an added benefit not seen with the standard agent.

[1] = target: T1, es nucleoside transporter (Homo sapiens, UniProt Q99808); experiment: Flow cytometric es nucleoside transporter binding assay (displacement of 5-(SAENTA)-X8-fluorescein) in K562 cells; conditions: for Ki: 25 nM 5-(SAENTA)-X8-fluorescein, 45 minutes, room temperature, read-out: Flow Cytometrically-Determined Ki Values; for Ki at the es transporter, in words: displacement of 5-(SAENTA)-X8-fluorescein
T1 construct: endogenous in cells; host or cells: K562 human chronic myelogenous leukemia cells (intact cells)
T1 sequence (Q99808 1-456): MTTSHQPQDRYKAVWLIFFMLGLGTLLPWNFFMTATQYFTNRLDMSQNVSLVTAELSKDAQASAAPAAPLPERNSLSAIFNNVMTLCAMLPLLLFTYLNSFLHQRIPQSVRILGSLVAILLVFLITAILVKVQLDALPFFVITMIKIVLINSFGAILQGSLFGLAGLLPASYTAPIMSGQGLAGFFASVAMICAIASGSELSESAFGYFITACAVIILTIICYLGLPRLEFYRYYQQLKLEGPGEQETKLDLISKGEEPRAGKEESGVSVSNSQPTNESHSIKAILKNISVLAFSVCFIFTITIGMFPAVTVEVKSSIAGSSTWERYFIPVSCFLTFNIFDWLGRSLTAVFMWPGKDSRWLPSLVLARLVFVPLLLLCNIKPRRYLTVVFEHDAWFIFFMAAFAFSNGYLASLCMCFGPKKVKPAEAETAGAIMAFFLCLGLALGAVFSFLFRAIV
Experimental: FIG. 1 is a graph showing the equilibrium displacement of SAENTA-fluorescein ligand by of new tetrahydroisoquinoline constrained NBMPR analogs in K562 cells. Cells are incubated with 25 nM SAENTA fluorescein in the presence of inhibitor for 45 minutes at room temperature and analyzed by flow cytometry.
Exemplary compounds are tested to determine their es nucleoside transporter binding ability by a flow cytometric assay (Buolamwini et al., 1994). Human leukemia K562 cells growing in RPMI 1640 medium are washed once and suspended at 1.6×10^6 cells/ml in phosphate-buffered saline at pH 7.4, and incubated with 5-(SAENTA)-X8-fluorescein (25 nM) in the presence or absence of varying concentrations of test compounds at room temperature for 45 minutes. Flow cytometric measurements for cell-associated fluorescence are then performed with a FACSCalibur (Becton Dickinson, San Jose, Calif.) equipped with a 15 mW-argon laser (Molecular Resources Flow Cytometry Facility, University of Tennessee Health Sciences Center). In each assay, 5,000 cells are analyzed from suspensions of 4×10^5 cells/ml. The units of fluorescence are arbitrary channel numbers. Percentage (%) of control (i.e. es transporter-specific fluorescence in the presence of SAENTA-fluor without test compounds) is calculated for each sample by the equation below.
[formula] • where SFs is the es transporter-specific fluorescence of test samples, and SFf is the es transporter-specific fluorescence of the SAENTA-fluor ligand standard.
The results are fed into the PRISM program (GraphPad, San Diego, Calif.) to derive concentration-dependent curves using nonlinear regression, as shown in FIG. 1. From these curves, the IC50 values are obtained that are used to compare abilities of the new compounds to displace the es transporter-specific ligand (5-(SAENTA)-X8-fluorescein (Buolamwini et al., 1994).
Examples of the present invention (2-5) are tested along with 6-(1,2,3,4-tetrahydroisoquinolinyl)purine riboside (23) as es transporter binding ligands by a facile competitive binding flow cytometric assay using the K562 chronic myelogenous leukemia cell line. The high-affinity es transporter fluorescent ligand, 5-(SAENTA)-X8-fluorescein is used as the competitive ligand to be displaced by the test compounds.

[2] = tested on: nucleoside transporter (uridine uptake in JB6 cells); experiment: Inhibition of [3H]uridine uptake in JB6 cells; assay type: cell-based; conditions: 1 μM [3H]uridine, 10-second uptake
Experimental: FIG. 2 is a graph showing inhibition of [^3H]uridine uptake by NBMPR (•) and a novel tetrahydroisoquinoline analogue compound 12 (◯) in JB6 cells. Cells in logarithmic phase of growth are incubated with 1 μM […] and 10-second uptake measurements were performed as described in Paterson et al. (1983). The data points are mean ±std for triplicate samples.
Cells in logarithmic phase of growth are incubated with 1 μM [^3H]uridine and 10-second uptake measurements are performed as described in Paterson et al. (1983).

es transporter = target: T2, es transporter (Homo sapiens, UniProt Q99808); conditions: product of in vivo loss of the nitrobenzyl group of NBMPR; cited from earlier work
T2 sequence (Q99808 1-456): T1 sequence (Q99808 1-456)

IC50 / binding to the es transporter (inhibition of SAENTA-fluor binding), in words, FIG. 1 [1]: much less potent inhibitors
Ki [1]: 300 nM
Ki at the es transporter, in words [1]: high nanomolar concentrations
Structure (SMILES): O=[N+]([O-])c1cccc2c1CN(c1ncnc3c1ncn3[C@@H]1O[C@H](CO)[C@@H](O)[C@H]1O)CC2 [Compound 5]

Ki [1]: 150 nM
Structure (SMILES): OC[C@H]1O[C@@H](n2cnc3c(N4CCc5ccccc5C4)ncnc32)[C@H](O)[C@@H]1O [Compound 23, 6-(1,2,3,4-tetrahydroisoquinolinyl)purine riboside]

Further lines, the compound ahead of its results:

Structure (SMILES): O=[N+]([O-])c1ccc(CSc2ncnc3c2ncn3[C@@H]2O[C@H](CO)[C@@H](O)[C@H]2O)cc1 [Compound 1, nitrobenzylthioinosine, reference compound]
Percentage recovery relative to control levels (rat heart): doubles
Change in EDP (rat heart): 65.2 ± 3.2%
Recovery from 30 min Global Ischemia (LVDP) (rat heart): 24.40 ± 3.6% (n = 5)^d

Structure (SMILES): O=[N+]([O-])c1cccc2c1CCN(c1ncnc3c1ncn3[C@@H]1O[C@H](CO)[C@@H](O)[C@H]1O)C2 [Compound 2]
IC50 / binding to the es transporter (inhibition of SAENTA-fluor binding), in words, FIG. 1 [1]: much less potent inhibitors
Ki [1]: 250 nM
Ki at the es transporter, in words [1]: high nanomolar concentrations

Structure (SMILES): O=[N+]([O-])c1ccc2c(c1)CCN(c1ncnc3c1ncn3[C@@H]1O[C@H](CO)[C@@H](O)[C@H]1O)C2 [Compound 3]
melting point: 148 to 149 °C
IC50 / binding to the es transporter (inhibition of SAENTA-fluor binding), in words, FIG. 1 [1]: bound as tightly as the prototype compound, NBMPR
Ki [1]: 15 nM

Structure (SMILES): O=[N+]([O-])c1ccc2c(c1)CN(c1ncnc3c1ncn3[C@@H]1O[C@H](CO)[C@@H](O)[C@H]1O)CC2 [Compound 4]
Percentage recovery relative to control levels (rat heart): triples
Change in EDP (rat heart): 52.5 ± 6.6%^f
Recovery from 30 min Global Ischemia (LVDP) (rat heart): 33.60 ± 9.8% (n = 4)^e
IC50 / binding to the es transporter (inhibition of SAENTA-fluor binding), in words, FIG. 1 [1]: low nanomolar range
Ki [1]: 0.45 nM
IC50 for inhibition of uridine uptake, FIG. 2 [2]: single digit nanomolar range

Structure (SMILES): OC[C@H]1O[C@@H](n2cnc3c(=S)nc[nH]c32)[C@H](O)[C@@H]1O [mercaptopurine riboside]
Decrease in es transporter affinity compared with NBMPR (es transporter): ≤ 1000 fold
